The subject of data set [1] is L1210 murine leukemia. Briefly: In vivo L1210 murine leukemia (ip/ip, d 1, 5, 9), protocol a, 10^6 cells. More on the design: species or system BDF1 mice. As to conditions: days 1, 5 and 9, ip; for %T/C: mean survival time; for LTS: tumor-free at 60 days. Here is the method: L 1210 leukemia cells were intraperitoneally (ip) injected in CDFl mice and treatment was initiated approximately 24 hours after tumor transplantation. Dosages of the drugs were administered ip according to preestablished protocols, usually at 4-day intervals. The studies were done over a 60-day period and the date of death for each animal was recorded. The % T/C was determined using the mean survival time (MST) for each group according to the formula % T/C = [(MST treated)/(MST control)] x 100 [formula]
(§1) • a) L1210 murine leukemia cells were maintained in vivo by weekly intraperitoneal (ip) injections of 10^6 cells in BDF1 mice. For test purposes, mice were inoculated i.p. with 10^6 L1210 cells and treatment was initiated 24 hours later. The desired dose of drug was administered on days 1, 5 and 9. Mice were observed daily for signs of toxicity and survival. The date of death was recorded for each animal that died or was sacrificed during the 60-day study. The mean survival time (MST) for each treatment group was calculated and the % T/C was determined using the following formula: % T/C = [(MST treated)/(MST control)] x 100 [formula] The results are reported in table X • b) L1210 murine leukemia cells were maintained in vivo by weekly intraperitoneal (ip) injections of 10^5 cells in DBA2 mice. For test purposes, CDF1 mice were inoculated i.p. with 10^5 L1210 cells and treatment was initiated 24 hours later. The desired dose of drug was administered on days 1, 5 and 9. Mice were observed daily for signs of toxicity and survival. The date of death was recorded for each animal that died or was sacrificed during the 60-day study. The median survival time (MST) for each treatment group was calculated and the % T/C was determined using the following formula: % T/C = [(MST treated)/(MST control)] x 100 [formula]

The test system of data set [2] is L1210 Murine leukemia cells. Briefly: In vitro growth inhibition of L1210 murine leukemia cells (Coulter Counter). In kind it is cell-based. As to conditions: Mus musculus, 72 hours of continuous exposure. Here is the method: The "in vitro" cytotoxic evaluation was also performed on L 1210 murine leukemia cells using the above mentioned cells maintained in suspension cultures (McCoy's 5A medium supplemented with 10% horse serum, glutamine, penicillin and streptomycin) grown in an humidified environment of 10% carbon dioxide and 90% air at 37°C. The compounds were dissolved in dimethylsulfoxide (DMSO) and added to the suspended cells in appropriate concentrations. After 72 hours of continuous exposure, the cell concentration was counted using a Coulter Counter and growth inhibition calculated using the formula: % growth inhibition = 1 - [cell number treated/cell number DMSO alone] x 100. [formula]
The IC50 was calculated from the growth inhibition data and they are reported in table VII in comparison to the prior art compound 5a (see table I for structure of 5a).
L1210 Murine leukemia cells were routinely maintained in suspension cultures in McCoy's 5A medium supplemented with 10% horse serum glutamine, penicillin and streptomycin and grown in a humidified environment of 10% carbon dioxide and 90% air at 37°C.
To assess the in vitro toxicity, each compound was dissolved in dimethylsulfoxide and added to 1 ml of L1210 cells (10^5 cells/tube) to attain final concentrations of 0.01, 0.1 and 1 µg of drug/ml of culture. After 72 hours of continues exposure to the drug, the cell concentration was determined with a Coulter Counter. Growth inhibition was calculated for each drug using the following formula: % growth inhibition = 1-[cell number treated/cell number DMSO alone] x 100. [formula]
The growth inhibition data was then used to calculate the IC50 value (the calculated drug concentration required to inhibit cell growth by 50% of control.

Data set [3] relates to L1210 murine leukemia. Briefly: In vivo ascitic L1210 murine leukemia (ip/ip, d 1, 5, 9), protocol b, 10^5 cells. The arrangement: species or system CDF1 mice. As to conditions: for %T/C: median survival time; for TOX: toxic deaths/total No. of mice; for LTS: tumor free at 60 days. The protocol: Dosages of the drugs were administered ip according to preestablished protocols, usually at 4-day intervals. The studies were done over a 60-day period and the date of death for each animal was recorded. The % T/C was determined using the mean survival time (MST) for each group according to the formula % T/C = [(MST treated)/(MST control)] x 100 [formula]
as §1, with “The mean survival time (MST) for each treatment group was calculated and the % T/C was determined using the following formula: % T/C = [(MST treated)/(MST control)] x 100 [formula] The results are reported in table X • b) L1210 murine leukemia cells were maintained in vivo by weekly intraperitoneal (ip) injections of 10^5 cells in DBA2 mice.” left out

The subject of data set [4] is P388 Murine Leukemia. Briefly: In vivo ascitic P388 murine leukemia (ip/ip, d 1, 5, 9). The arrangement: species or system CDF1 mice. As to conditions: for % T/C (range): median survival time; for TOX: toxic deaths/total No. of mice. The protocol: Treatment was initiated approximately 24 hours after tumor transplantation and dosages of the drug were administered ip (P388 ip/ip) or iv (P388 iv/iv) according to preestablished protocols, usually at 3-day (P388 iv/iv) or 4-day (P388 ip/ip) intervals. The studies were done over a 60-day period and the date of death for each animal was recorded. The % T/C was determined using the mean survival time (MST) for each group according to the formula % T/C = [(MST treated)/(MST control)] x 100 [formula]
P388 Murine Leukemia cells were maintained in vivo by serial intraperitoneal (ip) injections of 10^6 cells in DBA2 mice. For test purposes, CDF1 mice were inoculated i.p. with 10^6 P388 cells and treatment was initiated 24 hours later. The i.p dose of drug was administered on days 1, 5 and 9. Mice were observed daily for signs of toxicity and survival. The date of death was recorded for each animal that died or was sacrificed during the 60-day study. The median survival time (MST) for each treatment group was calculated and the % T/C was determined using the following formula: % T/C = [(MST treated)/(MST control)] x 100 [formula]

For data set [5], the system named is human colon adenocarcinoma cell line (Lovo). Briefly: MTT cytotoxicity assay on human colon adenocarcinoma Lovo cells. In kind it is cell-based. As to conditions: 144 h, read-out: IC50 µg/ml±S.D. LoVo. The protocol: (§2) The evaluation of the "in vitro" cytotoxic activity of the compounds of the invention was performed using a human colon adenocarcinoma cell line (Lovo) isolated from a metastatic nodule and a subline with aquired resistance to a number of antitumor agents, among which doxorubicin, VP-16 and vincristine. […] The compounds were tested according to the MTT assay (Mosman, T., "Rapid Colorimetric assay for cellular growth and survival: application to proliferation and cytotoxicity assay", J. Immunol. Methods, (1983), 65, 55-63; Green, L.M., "Rapid colorimetric assay for cell viability; application to the quantitation of cytotoxic and growth inhibitory lymphokines", J. Immunol. Methods, (1984), 70, 257-268) in comparison with mitoxantrone, ametantrone and doxorubicin.
(§3) In vitro biological evaluation: MTT assay on human colon adenocarcinoma Lovo cells.
(§4) The MTT assay was performed according to Mosmann, T., J. Immunol. Methods, (1983), 65, 55-63 and Green, L. M., J. Immunol. Methods, (1984), 70, 257-268.
(§5) Immediately before use, compounds and reference standards are dissolved in proper solvent and subsequently further diluted in complete culture medium. Human colon adenocarcinoma cells Lovo and the subline resistant to doxorubicin (Lovo/DX) (2.5. 10^4 cells/ml) are plated in 96-well plates and preincubated for 24 hours in culture medium. After this time, the cells are exposed to drugs for 144 hours, then the thiazolyl blue tetrazolium bromide solution (MTT solution) is added and the cells are reincubated for 4 hours. The supernatant is removed and 150 µl of dimethylsulfoxide are added to solubilize formazan crystals. The plate is read at 570 nm with microplate reader and the inhibiting concentration of 50% cellular growth (IC50; µg/ml) is calculated.

The subject of data set [6] is P388 Murine Leukemia. Briefly: In vivo P388 murine leukemia (iv/iv, d 1, 4, 7). As to conditions: for T/C% (range): median survival time; for LTS: tumor free at 60 days. The protocol: P388 Murine Leukemia cells were maintained in vivo by serial intraperitoneal (i.p.) injections of 10^6 cells in DBA2 mice. For test purposes, CDF1 mice were inoculated intravenously (i.v.) with 10^6 P388 cells and treatment was initiated 24 hr later. The i.v. dose of drug was administered on days 1, 4 and 7. Mice were observed daily for signs of toxicity and survival. The date of death was recorded for each animal that died or was sacrificed during the 60 day study. The median survival time (MST) for each treatment group was calculated and the % T/C was determined using the following formula: % T/C = [(MST treated)/(MST control)] x 100 [formula]

The test system of a further data set is Lovo/DX. Briefly: MTT cytotoxicity assay on doxorubicin-resistant subline Lovo/DX. In kind it is cell-based, human. The protocol: as §2, §3, §4, §5
The subject of data set [7] is murine L 1210 leukemia. As to conditions: in vitro, from J. Med. Chem. (1985), 28, 1124-1126; cited from earlier work.
Data set [8] relates to murine L 1210 leukemia. As to conditions: in vivo, Dose 50 mg/kg; cited from earlier work.

Molecules are shown by their SMILES. ≈ marks a conversion by molar mass, not a printed value. Where “and” joins values, the source holds several entries; their conditions need not be identical. Identical values can stand only once. Counter-ions that a name gives are not always drawn. Marks after values point to notes of the source that are not given here.

For `NCCNc1ccc(NCCN)c2c1C(=O)c1ccncc1C2=O` [Compound 10i.HCl, 6,9-bis{[2-(amino)ethyl]amino}benzo[g]isoquinoline-5,10-dione], the “%T/C” value is 265% in the data set on L1210 murine leukemia [1] (Dose 12.5 mg/kg); 265% in the data set with L1210 murine leukemia [1] (Dose 25 mg/kg); 156% in the data set with L1210 murine leukemia [3] (6.25 mg/kg/day ip days 1,5,9); 175% in the data set with L1210 murine leukemia [3] (12.5 mg/kg/day ip days 1,5,9); 250* % in the data set with L1210 murine leukemia [3] (25 mg/kg/day ip days 1,5,9, value calculated on dead mice). In addition, the LTS is 4/6 in the data set on L1210 murine leukemia [1] (Dose 12.5 mg/kg); 5/6 in the data set with L1210 murine leukemia [1] (Dose 25 mg/kg); 0/8 with L1210 murine leukemia [3] (6.25 mg/kg/day ip days 1,5,9); 1/8 with L1210 murine leukemia [3] (12.5 mg/kg/day ip days 1,5,9); 4/7 in the data set with L1210 murine leukemia [3] (25 mg/kg/day ip days 1,5,9). The molecule also had an IC50 in data set [2] of 0.05 µg/mL. The TOX is reported as 0/8 in the data set on L1210 murine leukemia [3] (6.25 mg/kg/day ip days 1,5,9); 0/8 with L1210 murine leukemia [3] (12.5 mg/kg/day ip days 1,5,9); 1/7 with L1210 murine leukemia [3] (25 mg/kg/day ip days 1,5,9); 0/8 with P388 Murine Leukemia [4] (3.1 mg/kg/day ip days 1,5,9); 1/8 with P388 Murine Leukemia [4] (6.25 mg/kg/day ip days 1,5,9); 0/8 with P388 Murine Leukemia [4] (12.5 mg/kg/day ip days 1,5,9). For the same molecule, the TOX in the data set on P388 Murine Leukemia [4] (25 mg/kg/day ip days 1,5,9) was 0/8. The “LTS (day 60)” value in the data set with P388 Murine Leukemia [4] (3.1 mg/kg/day ip days 1,5,9) is listed as 0/8; in the data set with P388 Murine Leukemia [4] (6.25 mg/kg/day ip days 1,5,9) it was 0/8; in the data set with P388 Murine Leukemia [4] (12.5 mg/kg/day ip days 1,5,9), 0/8; in the data set on P388 Murine Leukemia [4] (25 mg/kg/day ip days 1,5,9), 2/8. For the same molecule, the “% T/C (range)” value is on record as 144% in the data set on P388 Murine Leukemia [4] (3.1 mg/kg/day ip days 1,5,9), 196% in the data set with P388 Murine Leukemia [4] (6.25 mg/kg/day ip days 1,5,9), 239% with P388 Murine Leukemia [4] (12.5 mg/kg/day ip days 1,5,9) and 367% in the data set on P388 Murine Leukemia [4] (25 mg/kg/day ip days 1,5,9).
With `CN(C)CCNc1ccc(NCCN(C)C)c2c1C(=O)c1ccncc1C2=O` [Compound 10a, 6,9-Bis{[2-(dimethylamino)ethyl]amino}benzo[g]isoquinoline-5,10-dione], the “%T/C” value with L1210 murine leukemia [1] (Dose 50 mg/kg) was determined as 151%. Besides, the IC50 in data set [2] amounted to 0.006 µg/mL (≈ 0.0157 µM); in data set [5], 0.045 µg/mL (≈ 0.118 µM); with Lovo/DX (Homo sapiens, LoVo/DX, MTT assay, 144 hrs drug exposure, read-out: IC50 µg/ml±S.D. LoVo/Dx) it was 0.085 µg/mL (≈ 0.223 µM). Moreover, the “T/C% (range)” value in the data set with P388 Murine Leukemia [6] (18 mg/kg/day iv days 1,4,7) is 172% and 156%; in the data set with P388 Murine Leukemia [6] (27 mg/kg/day iv days 1,4,7), 188% and 167%; in the data set on P388 Murine Leukemia [6] (40 mg/kg/day iv days 1,4,7), 183% and 156%. Moreover, the LTS is given as 0/14 in the data set on P388 Murine Leukemia [6] (18 mg/kg/day iv days 1,4,7), 0/17 in the data set with P388 Murine Leukemia [6] (27 mg/kg/day iv days 1,4,7) and 0/16 with P388 Murine Leukemia [6] (40 mg/kg/day iv days 1,4,7). For the same molecule, in the data set with Lovo/DX (R.I. = (IC50 LoVo/Dx)/(IC50 LoVo)), the R.I. is given as 1.9. Moreover, the “cross resistance with mitoxantrone and ametantrone” value with Lovo/DX (resistant subline Lovo/DX) is listed as “no cross resistance”.
Regarding `CN(C)CCNc1ccc(NCCN(C)C)c2c1C(=O)c1cccnc1C2=O` [Compound 5a, 6,9-bis{[2-(dimethylamino)ethyl]amino}benzo[g]quinoline-5,10-dione, reference compound], the ID50 with murine L 1210 leukemia [7] was 0.16 µg/mL (≈ 0.419 µM). In addition, the “%T/C” value in the data set with L1210 murine leukemia [1] (Dose 50 mg/kg) is 129%. The IC50 in data set [2] came out at 0.155 µg/mL (≈ 0.406 µM). Moreover, the T/C in the data set on murine L 1210 leukemia [8] is given as 130.

Values taken from patent EP0503537B1, “6,9 Bis(substituted-amino)benzo-[g]isoquinoline-5,10-diones” (THE UNIVERSITY OF VERMONT, priority 1991, dated 1992).
